The results in this text go back to patent US11351142B2, “Composition and method for treating neuronal ceroid lipofuscinosis” (Rush University Medical Center, priority 2012, dated 2022).

The structures appear in SMILES notation.

In one assay the test system is Cln2 mRNA. The experiment in a line: Cln2 mRNA expression by semi-quantitative RT-PCR and real-time PCR in mouse primary astrocytes. The class given is cell-based. As for the experimental part: (§1) Astroglia were isolated from mixed glial cultures as described (17,18) according to the procedure of Giulian and Baker (19). Briefly, on day 9, the mixed glial cultures were washed three times with Dulbecco's modified Eagle's medium/F-12 and subjected to shaking at 240 rpm for 2 h at 37° C. on a rotary shaker to remove microglia. After 2 days, the shaking was repeated for 24 h for the removal of oligodendroglia and to ensure the complete removal of all nonastroglial cells. The attached cells were seeded onto new plates for further studies. Total RNA was isolated from mouse primary astrocytes and human primary astrocytes using RNA-Easy Qiagen (Valencia, Calif.) kit following manufactures protocol. Semi-quantitative RT-PCR was carried out as described earlier (24) using oligo (dT) 12-18 as primer and moloney murine leukemia virus reverse transcriptase (MMLV-RT, Invitrogen) in a 20 μl reaction mixture. The resulting cDNA was appropriately amplified using Promega Master Mix (Madison, Wis.) and the following primers (Invitrogen) for murine genes: The mRNA quantification was performed using the ABI-Prism7700 sequence detection system (Applied Biosystems, Foster City, Calif.) using iTaq™ Fast Supermix With ROX (Bio-Rad, Hercules, Calif.) and the following 6-FAM/ZEN/IBFQ-labeled primers for murine genes: Cln2 and Gapdh (Integrated DNA Technologies Coralville, Iowa). The mRNA expression of the targeted genes was normalized to the level of Gapdh mRNA and data was processed by the ABI Sequence Detection System 1.6 software.
(Real-time PCR tracks product formation cycle by cycle.)

Assay [1] relates to tripeptidyl peptidase 1 (TPP1). Briefly: Double-labeling for TPP1 and β-tubulin (FIG. 11). The assay is classed as cell-based. To be noted: 25 μM gemfibrozil and 10 μM fenofibrate, 24 hours. From the text:
(§2) DAPI was used to visualize nuclei. Results represent 3 independent experiments.

Assay [2] concerns TPP1. The experiment in a line: Immunofluorescence for TPP1 in human primary astrocytes. The class given is cell-based. To be noted: 25 μM gemfibrozil and 10 μM fenofibrate, 24 hrs. As for the experimental part: (§3) Following four 15 minute washes with filtered PBS, cells were incubated for 4-5 min with 4′, 6-diamidino-2-phenylindole (DAPI, 1:10,000; Sigma).
In assay [3] the test system is TPP1. Briefly: Immunofluorescence for TPP1 in mouse primary astrocytes. The class given is cell-based. Here is the method: Astroglia were isolated from mixed glial cultures as described (17,18) according to the procedure of Giulian and Baker (19). Briefly, on day 9, the mixed glial cultures were washed three times with Dulbecco's modified Eagle's medium/F-12 and subjected to shaking at 240 rpm for 2 h at 37° C. on a rotary shaker to remove microglia. After 2 days, the shaking was repeated for 24 h for the removal of oligodendroglia and to ensure the complete removal of all nonastroglial cells. The attached cells were seeded onto new plates for further studies. Immunocytochemistry was performed as described earlier (25). Briefly, 8 well chamber slides containing mouse primary astrocytes, mouse neurons, human primary astrocytes or SH-SY5Y cells were cultured to 70-80% confluence were fixed with chilled Methanol (Fisher Scientific, Waltham, Mass.) overnight, followed by two brief rinses with filtered PBS. Samples were blocked with 2% BSA (Fisher Scientific) in PBS containing Tween 20 (Sigma) and Triton X-100 (Sigma) for 30 min and incubated at room temperature under shaking conditions for 2 hr in PBS containing the following anti-mouse primary antibodies: […] Santa Cruz Biotech, Santa Cruz, Calif.), GFAP, (1:100; Santa Cruz), and 3-tubulin (1:5000; Millipore). […] The samples were run in an EtOH and Xylene (Fisher) gradient, mounted and observed under Olympus BX41 fluorescence microscope.

The subject of assay [4] is lysosomal genes. The experiment in a line: RT-PCR for lysosomal genes in human astrocytes. The following applies: 25 μM gemfibrozil, serum free. The assay is classed as cell-based.
Procedure: (§4) (FIG. 13A) Quantitative real-time PCR for lysosomal genes in mouse astrocytes treated with 25 μM gemfibrozil for different time points under serum free conditions. […] (FIG. 13B) RT-PCR for lysosomal genes in human astrocytes treated under same condition. […] Results represent 3 independent experiments.
In assay [5] the test system is TPP1. Briefly: Immunofluorescence for TPP1 in SH-SY5Y cells. To be noted: 25 μM gemfibrozil and 10 μM fenofibrate, 24 hrs. The class given is cell-based, human. Here is the method: Immunocytochemistry was performed as described earlier (25). Briefly, 8 well chamber slides containing mouse primary astrocytes, mouse neurons, human primary astrocytes or SH-SY5Y cells were cultured to 70-80% confluence were fixed with chilled Methanol (Fisher Scientific, Waltham, Mass.) overnight, followed by two brief rinses with filtered PBS. Samples were blocked with 2% BSA (Fisher Scientific) in PBS containing Tween 20 (Sigma) and Triton X-100 (Sigma) for 30 min and incubated at room temperature under shaking conditions for 2 hr in PBS containing the following anti-mouse primary antibodies: […] Santa Cruz Biotech, Santa Cruz, Calif.), GFAP, (1:100; Santa Cruz), and 3-tubulin (1:5000; Millipore). After four 15 min washes in filtered PBS, the slides were further incubated with Cy2 or Cy5-labeled secondary antibodies (all 1:200; Jackson ImmunoResearch, West Grove, Pa.) for 1 hr under similar shaking conditions. Following four 15 minute washes with filtered PBS, cells were incubated for 4-5 min with 4′, 6-diamidino-2-phenylindole (DAPI, 1:10,000; Sigma). The samples were run in an EtOH and Xylene (Fisher) gradient, mounted and observed under Olympus BX41 fluorescence microscope.

The next assay concerns primary human neurons. Briefly: LysoTracker labeling of lysosomes in primary human neurons. The following applies: 25 μM gemfibrozil and 10 μM fenofibrate, 24 hours. The assay is classed as cell-based.
From the text: as §2

The test system of a further assay is Cln1 mRNA. Briefly: Cln1 mRNA expression by semi-quantitative RT-PCR in mouse primary astrocytes. The assay is classed as cell-based. To be noted: 25 μM gemfibrozil, 2, 6, 12, and 24 hrs. As for the experimental part:
as §1, with “The mRNA quantification was performed using the ABI-Prism7700 sequence detection system (Applied Biosystems, Foster City, Calif.) using iTaq™ Fast Supermix With ROX (Bio-Rad, Hercules, Calif.) and the following 6-FAM/ZEN/IBFQ-labeled primers for murine genes: Cln2 and Gapdh (Integrated DNA Technologies Coralville, Iowa). The mRNA expression of the targeted genes was normalized to the level of Gapdh mRNA and data was processed by the ABI Sequence Detection System 1.6 software.” left out

The test system of assay [6] is lysosomal genes. Briefly: Quantitative real-time PCR for lysosomal genes in mouse astrocytes. The assay is classed as cell-based. The following applies: 25 μM gemfibrozil, different time points, serum free.
Procedure: as §4
In assay [7] the test system is TPP1. The experiment in a line: Immunofluorescence for TPP1 in mouse primary neurons. The following applies: mouse neurons from cortex, hippocampus, and striatum; 25 μM gemfibrozil and 10 μM fenofibrate, 24 hrs. The class given is cell-based. Here is the method: as §3

As to `Cc1ccc(C)c(OCCCC(C)(C)C(=O)O)c1` [gemfibrozil], in the assay with Cln2 mRNA (PPARα−/− astrocytes, different concentrations, 24 hrs), the “Cln2 mRNA expression” value is “little or no effect”. For the same compound, in the assay on Cln2 mRNA (WT astrocytes pre-treated with GW9662 for 30 min), the “Cln2 mRNA expression in presence of PPARγ antagonist” value is recorded as “increased expression”. Moreover, the “Cln2 level (quantitative real time PCR)” value with Cln2 mRNA (astrocytes with RXRα knockdown (RXRα siRNA), gemfibrozil (10 μM), RA (0.5 μM) alone and in combination) is given as “almost unresponsive”. In addition, in the assay with Cln2 mRNA (mouse primary astrocytes, 24 hrs, RA 0.5 μM, gemfibrozil 10 μM, combination 10 μM gemfibrozil and 0.5 μM RA), the “increase in Cln2 mRNA levels (quantitative real time PCR)” value was roughly 4 fold. The “Cln2 mRNA levels (RT-PCR and qPCR)” value in the assay with Cln2 mRNA (mouse primary astrocytes, serum free media, different doses and time points, maximum increase at 24 hrs of 25 μM gemfibrozil) is reported as “upregulated”. In addition, the “lysosomal marker protein TPP1 (double-labeling)” value in assay [1] is “upregulation”. Further, the “level of TPP1 protein (immunofluorescence)” value with TPP1 [2] and in the assay on TPP1 [5] was “considerable increase” throughout. The “TPP1 (immunofluorescence)” value in the assay with TPP1 [3] (PPARα−/− astrocytes compared to WT and PPARβ−/− cells, 25 μM gemfibrozil and 10 μM fenofibrate, 24 hrs) is “little or no increase”; in the assay with TPP1 [7], “significant increase”. Also, the “TPP1 protein (immunofluorescence)” value with TPP1 [3] (mouse primary astrocytes, different concentrations) is reported as “dose dependant increase”. In addition, the “lysosomal genes mRNA (RT-PCR)” value in the assay with lysosomal genes [4] is “upregulation”. Also, the “lysosomal proliferation (LysoTracker)” value in the assay with primary human neurons is “upregulation”. In addition, the “Cln1 mRNA expression” value with Cln1 mRNA was “increase within 12 to 24 h”. Besides, the “lysosomal genes mRNA (quantitative real-time PCR)” value in the assay with lysosomal genes [6] is “upregulation”.
